Results on 42 compounds are retold here after publication PMC7354438 (Viruses, 2020).

Counter-ions that a name gives are not always drawn. Like-named read-outs stand apart in the source and are kept apart here.

For this assay, the system named is hCoV-19/Norway/Trondheim-E9/2020. Put plainly: Drug test: viability of SARS-CoV-2-infected Vero-E6 cells (CellTiter-Glo). The format is cell-based. More on the design: AUC: unit not given beside the values.
Setting [1] is: area under the dose-response curve of viability of virus-infected Vero-E6 cells, moi 0.1, 72 h, 7 concentrations, decimal comma.

Take `CC(=O)Oc1ccccc1C(=O)O` [Acetylsalicylic acid]: the AUC under setting [1] is given as 131,04. For the compound `Nc1ncn([C@@H]2O[C@H](CO)[C@@H](O)[C@H]2O)c(=O)n1` [Azacytidine], the AUC (72 h) is given as 228,06. Still for that read-out and setting: the result for `CN[C@H]1C(=O)N[C@@H]2Cc3ccc(cc3)Oc3cc4cc(c3O[C@@H]3O[C@H](C(=O)O)[C@@H](O)[C@H](O)[C@H]3NC(=O)CCCCCCCCC(C)C)Oc3ccc(cc3Cl)[C@@H](O)[C@@H]3NC(=O)[C@H](NC(=O)[C@@H]4NC(=O)[C@@H](NC2=O)c2cc(cc(O)c2Cl)Oc2cc1ccc2O)c1ccc(O)c(c1)-c1c(O[C@H]2O[C@H](CO)[C@@H](O)[C@H](O)[C@@H]2O)cc(O)cc1[C@@H](C(=O)NCCCN(C)C)NC3=O` [Dalbavancin] reads 136,29; that for `CC(C)C[C@H]1C(=O)N2CCC[C@H]2[C@]2(O)O[C@](NC(=O)[C@@H]3C=C4c5cccc6[nH]c(Br)c(c56)C[C@H]4N(C)C3)(C(C)C)C(=O)N12.CS(=O)(=O)O` [Bromcriptine mesilate], 59,71. For the compound `CC(C)OC(=O)OCOP(=O)(CO[C@H](C)Cn1cnc2c(N)ncnc21)OCOC(=O)OC(C)C` [Tenofovir disoproxil fumarate], the AUC under setting [1] is 137,2. Take `C[C@H]1[C@H](OC(=O)CCC(=O)O)O[C@@H]2O[C@@]3(C)CC[C@H]4[C@H](C)CC[C@@H]1[C@@]24OO3` [Artesunate]: the AUC under setting [1] was 222,25. Consider `O=C1[C@H](CC[C@H](O)c2ccc(F)cc2)[C@@H](c2ccc(O)cc2)N1c1ccc(F)cc1` [Ezetimibe], for which, under setting [1], the AUC is listed as 138,39. With `NCCCC(N)(C(=O)O)C(F)F` (stereo not shown) [DFMO (Difluoromethylomithine), Difluoromethylomithine], the AUC (72 h) is recorded as 142,66.

For `C#Cc1cccc(Nc2ncnc3cc(OCCOC)c(OCCOC)cc23)c1` [Erlotinib], the AUC under setting [1] is on record as 103,46.

As to `CN(C)C(=N)N=C(N)N` [Metformin (1,1-Dimethylbiguanide), 1,1-Dimethylbiguanide], the AUC under setting [1] is listed as 116,76. With `CC(C)c1nc(CN(C)C(=O)N[C@H](C(=O)N[C@@H](Cc2ccccc2)C[C@H](O)[C@H](Cc2ccccc2)NC(=O)OCc2cncs2)C(C)C)cs1` [Ritonavir], the AUC under setting [1] was 137,69.

Take `CO[C@H]1C[C@@H]2CC[C@@H](C)[C@@](O)(O2)C(=O)C(=O)N2CCCC[C@H]2C(=O)O[C@H]([C@H](C)C[C@@H]2CC[C@@H](O)[C@H](OC)C2)CC(=O)[C@H](C)/C=C(\C)[C@@H](O)[C@@H](OC)C(=O)[C@H](C)C[C@H](C)/C=C/C=C/C=C/1C` [Rapamycin]: the AUC (72 h) is on record as 46,9. For `O=C(O)P(=O)(O)O` [Foscarnet], under setting [1], the AUC is 127,26. `Cc1c(-c2ccc(-c3ccccc3F)cc2)nc2ccc(F)cc2c1C(=O)O` [Brequinar]: the AUC under setting [1] is given as 260,54.

Consider `CNCCC(Oc1ccc(C(F)(F)F)cc1)c1ccccc1` (stereo not shown) [Fluoxetine], for which the AUC under setting [1] is given as 104,37. In the case of `CC(C)COCC(CN(Cc1ccccc1)c1ccccc1)N1CCCC1` (stereo not shown) [Bepridil], the AUC under setting [1] is on record as 285,95. For the compound `N=C(N)c1ccc2cc(OC(=O)c3ccc(N=C(N)N)cc3)ccc2c1` [Nafamostat], the AUC (72 h) is given as 166,53. Turning to `CC[C@@]1(O)C(=O)OCc2c1cc1n(c2=O)Cc2cc3ccccc3nc2-1` [Camptothecin], the AUC (72 h) is reported as 57,75. As for `CCCCNc1cc(C(=O)O)cc(S(N)(=O)=O)c1Oc1ccccc1` [Bumetanide], under setting [1], the AUC is recorded as 87,85. Take `O=C(c1ccc(OCCN2CCCCC2)cc1)c1c(-c2ccc(O)cc2)sc2cc(O)ccc12` [Raloxifene]: the AUC under setting [1] was 199,57. In the case of `COc1cccc(N2CCN(C3=Nc4c(F)cccc4[C@H](CC(=O)O)N3c3cc(C(F)(F)F)ccc3OC)CC2)c1` [Letermovir], the AUC under setting [1] is 134,12. For Clomiprade hydrochloride, for the setting “72 h”, the AUC is reported as 74,69. With `O=C1c2c(O)ccc(O)c2C(=O)c2c(NCCNCCO)ccc(NCCNCCO)c21` [Mitoxantrone], the AUC under setting [1] is on record as 125,09. As to `CCC(C)n1ncn(-c2ccc(N3CCN(c4ccc(OCC5COC(Cn6cncn6)(c6ccc(Cl)cc6Cl)O5)cc4)CC3)cc2)c1=O` (stereo not shown) [Itraconazole], the AUC under setting [1] is reported as 110,18. In the case of Abamectin, the AUC (72 h) was 151,97. `CCN(CC)CCOc1ccc2c(c1)C(=O)c1cc(OCCN(CC)CC)ccc1-2` [Tilorone (dihydrochloride), Tilorone]: the AUC under setting [1] was 83,72. In the case of `CC(=O)Oc1ccccc1C(=O)Nc1ncc([N+](=O)[O-])s1` [Nitazoxanide], the AUC under setting [1] is 120,33. Regarding `CCn1cc(C(=O)O)c(=O)c2cc(F)c(N3CCNCC3)nc21` [Enoxacin], the AUC under setting [1] is reported as 118,23. Take `CCCCCCCCCCCCCCCCOCCCOP(=O)(O)CO[C@H](CO)Cn1ccc(N)nc1=O` [Brincidofovir (CMX001), Brincidofovir]: the AUC under setting [1] is given as 126,49. For the compound Teicoplanin, where the note is “72 h”, the AUC is given as 145,39.

Take `CN(C)CCOc1ccc(/C(=C(/CCCl)c2ccccc2)c2ccccc2)cc1` [Toremifene]: the AUC under setting [1] is 27,02. For `Cc1cccc(C)c1OCC(=O)N[C@@H](Cc1ccccc1)[C@@H](O)C[C@H](Cc1ccccc1)NC(=O)[C@H](C(C)C)N1CCCNC1=O` [Lopinavir], the AUC under setting [1] is reported as 157,36. For `CC[C@H]1OC(=O)[C@H](C)[C@@H](O[C@H]2C[C@@](C)(OC)[C@@H](O)[C@H](C)O2)[C@H](C)[C@@H](O[C@@H]2O[C@H](C)C[C@H](N(C)C)[C@H]2O)[C@](C)(O)C[C@@H](C)CN(C)[C@H](C)[C@@H](O)[C@]1(C)O` [Azithromycin], the AUC under setting [1] is on record as 119,42. In the case of `Nc1ncnc2c([C@@H]3N[C@H](CO)[C@@H](O)[C@H]3O)c[nH]c12` [BCX4430 (galidesivir), galidesivir], the AUC under setting [1] is on record as 94,08. On the same count and under the same terms, the result for `Nc1nc(=O)c2ncn([C@@H]3C[C@H](CO)[C@H]3CO)c2[nH]1` [Lobucavir] reads 153,65. As to `CN[C@@H]1C[C@H]2O[C@@](C)([C@@H]1OC)n1c3ccccc3c3c4c(c5c6ccccc6n2c5c31)C(=O)NC4` [Staurosporine], the AUC (72 h) is 15,75. On to `CC(C)(C)c1cnc(CSc2cnc(NC(=O)C3CCNCC3)s2)o1` [SNS-032], for which the AUC under setting [1] is 96,25. Turning to `CC[C@H](CO)Nc1nc(NCc2ccccc2)c2ncn(C(C)C)c2n1` [Roscovitine], the AUC (72 h) is recorded as 137,97.

Consider `C[C@H]1O[C@@H](O[C@H]2CC[C@@]3(C)[C@@H](CC[C@]4(C)[C@@H]3C=C[C@]35OC[C@@]6(CCC(C)(C)C[C@H]63)[C@@H](O)C[C@]54C)[C@]2(C)CO)[C@H](O)[C@@H](O[C@@H]2O[C@H](CO)[C@@H](O)[C@H](O)[C@H]2O)[C@H]1O` [Saikosaponin A], for which, where the note is “72 h”, the AUC was 77. Take `CC(C)C[C@H]1C(=O)N2CCC[C@H]2[C@]2(O)O[C@](NC(=O)[C@@H]3C=C4c5cccc6[nH]c(Br)c(c56)C[C@H]4N(C)C3)(C(C)C)C(=O)N12` [Bromocriptine]: the AUC (72 h) is recorded as 164,57. For the compound `CC(=O)OCC(CCn1cnc2cnc(N)nc21)COC(C)=O` [Famciclovir], the AUC under setting [1] is 149,52. As for `CN1CCC[C@H]1c1cccnc1` [nicotine], the AUC was 239 and the “rescue of cells from virus-mediated death” value is recorded as “rescued cells from virus-mediated death but altered the cell morphology”.
